Where two headings read alike, the source gives them in different places.
Legend:
primary mouse neurons [1] = experiment: NMDA excitotoxicity assay, cell viability by MTT; type: cell-based; conditions: 24 h pretreatment, 24 h after NMDA
Method: Primary cortical neurons were prepared from embryonic day 16 C57bl/6J mouse pups or embryonic day 18 Wistar rat pups. Briefly, cerebral cortices were physically and chemically dissociated with 0.25% trypsin-EDTA (Gibco, Waltham, MA, USA) in dissociation medium (HBSS) at 37 °C for 15 min followed by trituration. The dissociated cells were checked under a microscope for single cells and plated out on poly-L-lysine (Sigma-Aldrich) -coated, 24-well plates (187,500 cells/well) for the excitotoxicity assays, and 96-well plates (47,000 cells/well) for the oxidative stress assays. […]
Neurons were pretreated with L- or D-carnosine for 24 h prior to NMDA stimulation (30 µM) for 30 min. […] Cytotoxicity was measured after 24 h using the Pierce cytotoxicity lactate dehydrogenase (LDH) assay kit. Cell viability was measured by 3-[4–Dimethylthiazol-2-yl]-2,5-diphenyltetrazolium bromide (MTT) assay, which reflects cell metabolism. After NMDA removal, the cells were evaluated for cell viability after 24 h with the addition of fresh media containing each drug. […] Insoluble formazan was dissolved by the addition of 100 μL of DMSO and the absorbance (570 nm) was measured using a multimode plate reader (EnSpire, PerkinElmer, Waltham, MA, USA).

[2] = design: method as in PMID 19301317; conditions: cited from earlier work
[3] = type: in vivo; conditions: mice, doses up to 1000 mg/kg
[4] = test system: transient focal cerebral ischemia (MCAO); experiment: Transient focal cerebral ischemia (60 min t-MCAO), infarct volume by TTC staining; type: in vivo, mice; conditions: for infarct volume reduction in comparison to saline: 48 h post-t-MCAO; for infarct volume reduction: 1000 mg/kg intravenously 2 h post-t-MCAO, 48 h post-MCAO
Method: Mice were anesthetized by inhalation of 5% isoflurane (in 100% Oxygen) and maintained at 1.5% isoflurane throughout the surgical procedure. Body temperature was monitored throughout surgery using a rectal probe and maintained at 37 + 0.5 °C using a heating pad (World Precision Instruments, Hitchin, Hertfordshire, UK). Laser Doppler flowmetry (Moor Instruments, Sussex, UK) was used to monitor cerebral blood flow. Focal cerebral ischemia was induced by middle cerebral artery occlusion (MCAO) by insertion of an intraluminal monofilament. […] A midline incision was made on the ventral side of the neck and the left common carotid artery (CCA) was isolated and ligated. Another ligature was tied on the left external carotid artery (ECA) and a loose knot was tied onto the internal carotid artery (ICA) as well as CCA just below the bifurcation. A very fine incision was made on the lower end of CCA and the monofilament (Doccol Corporation, Sharon, MA, USA) was advanced approximately 9 mm distal to the bifurcation into the ICA until it reached the distal end of middle cerebral artery (MCA). Relative cerebral blood flow was monitored for initial 10 min postfilament insertion to confirm at least 70% reduction of […] values. The animals were kept under anesthesia for the ischemic period of 60 min, after which the filament was withdrawn and reperfusion (confirmed using LD) was allowed to take place. The knots were untied and the animals were allowed to recover at 37 °C for 1 h before they were transferred to their normal cages. In the first set of experiments, 60 min transient MCAO (t-MCAO) was induced in mice weighing 20-25 g. At the onset of reperfusion, saline or different doses of drugs (L- and D-carnosine; 100, 500 or 1000 mg/kg) were delivered intraperitoneally (IP). Postrecovery, the animals were allowed to recover, placed back in their normal environment for 48 h and then euthanized. (IP administration was used as it was technically difficult to do IV injections at reperfusion). In a second set of experiments, drugs and saline were administered intravenously 2 h post-t-MCAO at 1000 mg/kg. Forty-eight hours post-t-MCAO, mice were deeply anaesthetized with 5% isoflurane, brains were removed and coronal slices with a thickness of 1 mm were prepared. Brain slices were immersed in 2% TTC (Sigma Aldrich) solution and incubated at 37 °C for 20 min. The area of infarction was traced and measured using image J analysis software. The infarct area was also corrected for edema: (1-(total ipsilateral hemisphere-infarct region)/total contralateral hemisphere) × 100. Total infarct volume was calculated as the sum of all infarct areas multiplied by each section thickness.

primary mouse neurons [5] = experiment: Oxidative stress assay: ROS accumulation (DCF fluorescence) after B27 withdrawal; type: cell-based; conditions: 24 h B27 withdrawal
Method: (§1) Primary cortical neurons were prepared from embryonic day 16 C57bl/6J mouse pups or embryonic day 18 Wistar rat pups. Briefly, cerebral cortices were physically and chemically dissociated with 0.25% trypsin-EDTA (Gibco, Waltham, MA, USA) in dissociation medium (HBSS) at 37 °C for 15 min followed by trituration. The dissociated cells were checked under a microscope for single cells and plated out on poly-L-lysine (Sigma-Aldrich) -coated, 24-well plates (187,500 cells/well) for the excitotoxicity assays, and 96-well plates (47,000 cells/well) for the oxidative stress assays. Neuronal cultures were maintained in B27 neurobasal medium with Glutamax and pen-strep (Gibco) in a 5% CO2 incubator at 37 °C, and cells were used at 11–14 days in vitro for experiments.
Cytosolic oxidative stress was determined using dichlorofluorescein (DCF) fluorescence. Primary neurons were loaded with 20 µM 2′, 7′-dichlorodihydrofluorescein diacetate (H2DCFDA; Invitrogen) for 45 min, washed and oxidative stress was induced by B27-withdrawal for 24 h, in the presence or absence of L- or D-carnosine. The fluorescence of oxidized DCF was read after 24 h at Ex485 nm/Em530 nm using the Pherastar FS platereader.

[6] = Serum pharmacokinetics after single intravenous injection (LC-MS/MS); type: in vivo; conditions: mice, 1000 mg/kg IV; for serum levels (molar): converted from μg/mL; for half-life: naive pooled noncompartmental analysis
Method: Mice were randomly divided into the treatment groups (n = 4~5 mice/group for each time point) and given a single intravenous injection of saline or L-carnosine (1000 mg/kg) or D-carnosine (1000 mg/kg) through the tail vein. Anesthesia was induced by isoflurane inhalation and maintained during intravenous injection. Blood samples were collected by cardiac puncture at 0, 5, 15, 30, 60, 180 and 360 min postadministration of carnosine. Blood was incubated at room temperature for 30 min to allow clotting to occur, followed by centrifugation at 12,000 g to isolate serum. Remaining blood was removed from the body through perfusion with phosphate-buffered saline, and the brain was carefully isolated. Aliquots of brain tissue (300 mg) and serum (150 μL) were stored at −70 °C and used for analysis.
Carnosine levels in serum or brain were determined using liquid chromatography tandem-mass spectrometry (LC-MS/MS) as previously described with a slight modification. H-Tyr-His-OH (Bachem AG, Köln, Germany) was used as internal standard (IS). The entire procedure for sample and standard preparation was carried out on ice. Serum (150 μL) or homogenized brain tissue (300 mg) were deproteinized using an ultrasonicator (VCX 500, Sonics & Materials Inc., Newtown, CT, USA) with 1 mL of 1 M TCA and 50 μL of 3 M TCA, respectively. After spiking the IS (10 μg for brain and 200 ng for serum), each homogenate was centrifuged at 9000 g for 15 min at 4 °C. The supernatant was used for the assay of carnosine concentrations. Calibration curves were obtained by spiking known concentrations of L- or D-carnosine (Sigma-Aldrich, St. Louis, MO, USA) into homogenates of brain or serum obtained from untreated mice, and samples were processed as described above.
Chromatographic separation and quantitation were performed using an LC-MS/MS system composed of HPLC (Ultimate 3000, Dionex, Rome, Italy) coupled with electrospray ionization (ESI) and triple quadrupole-ion trap mass spectrometry (3200 Qtrap, AB Sciex, Ontario, Canada). Synergi C18-L (Phenomenex 150 × 4.6 mm, 4 μm particle size) column was used with a 0.8 mL/min flow rate of mobile phase. Isocratic elution of 75/25 (5 mM heptafluorobutyric acid/acetonitrile) was used for brain samples and gradient elution (95/5 to 80/20 for 6 min and holding for 4 min) was used for serum samples. The injection volume was 5 μL. For ESI source, ion spray voltage was 4.5 kV and capillary temperature was set at 650 °C which provided optimum ionization of each analyte. A multiple reaction monitoring (MRM) in positive mode was used to detect carnosine (m/z 227 > 110 as quant ion, 156 and 83 as qualifier), histidine (m/z 156 > 110 as quant ion, 83 and 82 as qualifier) and IS (m/z 319 > 110 as quant ion, 156 and 91 as qualifier). Pharmacokinetic parameters were calculated by noncompartmental analysis using a sparse sampling and naïve pooled approach (WinNonLin (Phoenix 64 Build 8.0.0.3176), Certara, Mountain View, CA, USA).

mouse cortical neurons = experiment: NMDA excitotoxicity assay, LDH release; type: cell-based; conditions: NMDA 30 µM
Method: as §1
(§2) Neurons were pretreated with L- or D-carnosine for 24 h prior to NMDA stimulation (30 µM) for 30 min. Post-NMDA stimulation, the cells were washed and incubated back in the original medium in the presence or absence of L- and D-carnosine. Wells were washed and the B27-neurobasal medium was replaced in the presence or absence of L- or D-carnosine. Cytotoxicity was measured after 24 h using the Pierce cytotoxicity lactate dehydrogenase (LDH) assay kit. Cell viability was measured by 3-[4–Dimethylthiazol-2-yl]-2,5-diphenyltetrazolium bromide (MTT) assay, which reflects cell metabolism. After NMDA removal, the cells were evaluated for cell viability after 24 h with the addition of fresh media containing each drug. MTT (Sigma Aldrich; final 5 mg/mL) was added to each well and the cells were incubated for 2 h at 37 °C in the dark. Insoluble formazan was dissolved by the addition of 100 μL of DMSO and the absorbance (570 nm) was measured using a multimode plate reader (EnSpire, PerkinElmer, Waltham, MA, USA).

rat cortical neurons = experiment: NMDA excitotoxicity assay, LDH release; type: cell-based; conditions: NMDA 30 µM
Method: as §1, §2

[7] = design: method as in PMID 19301317; conditions: cited from earlier work; remark: listed apart in the source
[8] = design: method as in PMID 23850642; conditions: rats, 15 min after intravenous injection of 2000 mg/kg; cited from earlier work
[9] = 100 mg/kg IP at onset of reperfusion
[10] = 500 mg/kg IP at onset of reperfusion
[11] = 1000 mg/kg IP at onset of reperfusion

## NCCC(=O)N[C@H](Cc1cnc[nH]1)C(=O)O [D-carnosine]
Primary mouse neurons [1]
  protection against decrease of cell viability by NMDA (MTT): significant protection
[2]
  ability to cross the blood brain barrier: able to cross the blood brain barrier
[3]
  safety and tolerability: safe and well tolerated
[4]; [9]
  infarct volume reduction in comparison to saline: 23.6%
[4]; [10]
  infarct volume reduction in comparison to saline: 27.8%
[4]; [11]
  infarct volume reduction in comparison to saline: 57.2%
[4]
  infarct volume reduction: 52.1%
Primary mouse neurons [5]; 200 µM
  attenuation of ROS accumulation: 14.5%
[6]; 5 min after injection
  serum levels (molar): 25700 µM
[6]; serum
  AUC: 108112 µg·min/mL
  CL: 9.23 mL/min/kg
  Vss: 0.12 L/kg
  half-life: 1.25 h
[6]; serum, 5 min after injection
  Cmax (5 min): 5818 µg/mL
Mouse cortical neurons; 10 µM
  reduction of cell death (LDH assay): 13.1%
Mouse cortical neurons; 100 µM
  reduction of cell death (LDH assay): 13.3%
Mouse cortical neurons; 200 µM
  reduction of cell death (LDH assay): 15%
Rat cortical neurons; 10 µM
  reduction of cell death (LDH assay): 21.9%
Rat cortical neurons; 100 µM
  reduction of cell death (LDH assay): 26.4%
Rat cortical neurons; 200 µM
  reduction of cell death (LDH assay): 22.8%
[7]
  stability in human plasma: stable in human plasma

## NCCC(=O)N[C@@H](Cc1cnc[nH]1)C(=O)O [L-carnosine, β-alanyl-L-histidine]
Primary mouse neurons [1]
  protection against decrease of cell viability by NMDA (MTT): significant protection
[3]
  safety and tolerability: safe and well tolerated
[4]; [9]
  infarct volume reduction in comparison to saline: 33.4%
[4]; [10]
  infarct volume reduction in comparison to saline: 30.94%
[4]; [11]
  infarct volume reduction in comparison to saline: 47.4%
[4]
  infarct volume reduction: 53.8%
Primary mouse neurons [5]; 100 µM
  attenuation of ROS accumulation: 18.6%
Primary mouse neurons [5]; 200 µM
  attenuation of ROS accumulation: 19.3%
[6]; 5 min after injection
  serum levels (molar): 17700 µM
[6]; mouse, serum
  clearance: 11.1 mL/min/kg
[6]; mouse, serum, 5 min after injection
  Cmax: 4010 µg/mL
[6]; mouse, serum, read-out: Half-Life
  half-life: 1.3 h
[6]; mouse, serum, read-out: AUC (converted)
  AUC: 89800 µg·min/mL
[6]; mouse, serum, read-out: Vss
  Vd: 0.223 L/kg
Mouse cortical neurons; 10 µM
  reduction of cell death (LDH assay): did not show neuroprotection
Mouse cortical neurons; 100 µM
  reduction of cell death (LDH assay): did not show neuroprotection
Mouse cortical neurons; 200 µM
  reduction of cell death (LDH assay): 12.2%
Rat cortical neurons; 200 µM
  reduction of cell death (LDH assay): 18.5%
[8]
  serum levels of carnosine: 15~20 mmol/L

From paper PMC7246848, “Comparative Cerebroprotective Potential of D- and L-Carnosine Following Ischemic Stroke in Mice” (International Journal of Molecular Sciences, 2020)
